In patent US20220386582A1, “METHOD AND DEVICE TO TRAP ACARIDS” (DOMOBIOS, priority 2015, published 2022):

Legend:
[1] = test system: Dermatophagoides pteronyssinus; experiment: Binary choice test in Petri dish, colored felt with attracting agent versus white felt with water; type: in vivo
Experimental: Aim of the experiments: All experiments are tests of binary choice aiming to determine the preference of mites and the place where they prefer to stay (at least for 30 min).
Rearing: The species studied was Dermatophagoides pteronyssinus, a dust mite common in mattresses in Eurasia. Mites are reared in Petri dishes and fed with human skin flakes (skin and whiskers obtained by cleaning electric shavers). All mites were reared together under defined conditions (20° C. and 75% relative humidity). The experiments took place in a room kept at 20° C. and 40% relative humidity.
Materials and methods: A group of mites (20<n<40) was placed in the center of a Petri dish (ø5.5 cm) around which two semi-circles of felt were placed (see FIG. 1). The pieces of felts were 70 mg/cm^2, their thickness was 2 mm. One felt is the control (control felt), for instance impregnated with water; the other felt is the felt with the tested item, for instance the felt that is impregnated with a chemical compound that is tested.
Mites move spontaneously towards one of the two felts.
Observations and counting of mites was made under binocular microscope (magnification 10×). The set-up is illuminated with a cold lamp (KL 1500 LCD, Schott ●), the lighting is symmetric and the light intensity was 50Klux. The experimental conditions were controlled in the room (T° C.: 19-22° C. and RH 40%). […]

[2] = test system: Dermatophagoides pteronyssinus; experiment: Mini-mattress trap: attraction capabilities of attracting solutions sprayed on felt; type: in vivo
Experimental: (§1) Rearing: The species studied were Dermatophagoides pteronyssinus and Dermatophagoides farinae, house dust mite common in mattresses in Eurasia. Mites are reared in Petri dishes and fed with human skin flakes (skin and whiskers obtained by cleaning electric […]). All mites were reared together under defined conditions (20° C. and 75% relative humidity). The experiments took place in a room kept at 20° C. and 40% relative humidity. Aim of the experiments: The aim was to test the trap in condition similar to the conditions that will be met by the user of the trap. Materials and methods: The mattresses were built at a smaller scale (15× reduction) than usual mattresses. These mini-mattresses are made in polyurethane and covered by a cover in cotton. They were infested with mites since at least 3 months. The fabric was a felt of 20 mg/cm^2 and is a rectangle of 10 cm×20 cm. It was placed on the mini-mattress. Then the attracting solution was sprayed on the fabric with a spray bottle. The fabric was left in place on the mattress during one hour. During this time, the mites moved in the felt. It is very difficult to count directly the mites hidden in the mattress and in the fabric. Therefore, we used a Berlèse funnel which is a device that is usually used to separate insects from litter. Here, it was used to separate the mites from their mattress or from the fabric. The Berlèse funnel uses a light bulb to heat and dry the mattress, thus driving the mites downwards through a screen and into a collecting jar containing some food and some water. […] They are attracted by a source of moisture and the smell of food. The mattress or blanket were therefore placed in the funnel (FIG. 2). The mites went downwards in the direction of the jar, then in the jar. The harvest of the jar containing the mites took place after one day. Mites had then 24 hours to migrate to the jar collector. As a substantial proportion of the population is immobile (moulting mites), trapping is less efficient than it would be otherwise and estimate of population size that is trapped are likely to be biased. To avoid this bias and make a proper assessment of the populations in infested mattresses, mattresses were carefully brushed with a soft brush at the end of the manipulation meaning that immobile mites and eggs also fall into the funnel. Fabric was carefully brushed too. The Berlèze funnel was rinsed with ethanol. Thus, mites still on the inner wall of the funnel were driven by ethanol in the jar collector. At the end of the experiment, the jar contained: the food used as attracting to mites, a small amount of water also used for attracting, mites, and ethanol. The jar was emptied into a Petri dish and we counted mites under binocular. Counting of mites was made under binocular microscope (magnification 10×). The set-up is illuminated with a cold lamp (KL 1500 LCD, Schott ●). The felt was sprayed with different attracting compositions: a solution of lavandulol, a solution of Tween 60, a combination of lavandulol and Tween 60, a solution of citral, and the attracting solution commercialized under the brand name Acar'up were compared at various dilutions.

Dermatophagoides farinae = experiment: as above; type: in vivo
Experimental: as §1

mites = conditions: washing at low temperature, final concentration of 0.03% benzyl benzoate (Bischoff et al 1998); cited from earlier work
[3] = Dilution 10^−6 (* mixture of a lavandulol solution at 10^−6 and a Tween 60 solution at 10^−6)

CC(C)=CCCC(C)=CC=O [Citral, 3,7-dimethyl-2,6-octadienal, reference compound]
Mean (choice of mites for the tested felt) ([1]; blue felt + 1 μl attracting agent (dil 10^−6) versus white felt + 1 μl H2O, 18 trials): 0.84 | migration of the mites toward the blue felt ([1]; blue felt in combination with citral): 84% | attraction capabilities, percentage of mites ([2]; Dilution 10^−3): 23% | attraction capabilities, percentage of mites [2, 3]: 76% | attraction capabilities, percentage of mites ([2]; Dilution 10^−9): 56% | attraction capabilities, percentage of mites ([2]; Dilution Undiluted): 3% | attraction capabilities, percentage of mites (Dermatophagoides farinae; Dilution 10^−1): 49% | attraction capabilities, percentage of mites (Dermatophagoides farinae; Dilution 10^−3): 36% | attraction capabilities, percentage of mites (Dermatophagoides farinae; [3]): 48% | attraction capabilities, percentage of mites (Dermatophagoides farinae; Dilution 10^−9): 43% | attraction capabilities, percentage of mites (Dermatophagoides farinae; Dilution Undiluted): 5%

O=C(OCc1ccccc1)c1ccccc1 [benzyl benzoate]
mite control in delicate garments (mites): possible to achieve mite control

Polyethylene glycol sorbitan monostearate [Tween 60]
attraction capabilities, percentage of mites ([2]; Dilution 10^−3): 70% | attraction capabilities, percentage of mites [2, 3]: 78% | attraction capabilities, percentage of mites ([2]; Dilution 10^−9): 57% | attraction capabilities, percentage of mites ([2]; Dilution Undiluted): 14% | attraction capabilities, percentage of mites (Dermatophagoides farinae; Dilution 10^−3): 54% | attraction capabilities, percentage of mites (Dermatophagoides farinae; [3]): 81% | attraction capabilities, percentage of mites (Dermatophagoides farinae; Dilution 10^−9): 39% | attraction capabilities, percentage of mites (Dermatophagoides farinae; Dilution Undiluted): 7%
